15 molecules from PubChem BioAssay AID220 (DTP/NCI, 2004) can be followed below.

Values joined by “and” are separate entries in the source; they are usually repeats but may differ in a detail not shown here. Identical values can stand only once. Records with an inconclusive call do not appear.

In this assay the test system is CD8F1 mice, subcutaneous mammary adenocarcinoma, T/C%. Description: NCI In Vivo Anticancer Drug Screen. Data for tumor model Mammary Adenocarcinoma CD8F1 (subcutaneous) in CD8F1. The note with it: higher = larger tumour. The essentials:
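Transplantable tumors were established in mice, animals were dosed with compound or vehicle, and survival or tumor size was then measured in both groups. The treated result was divided by the control result.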

The mark [1] stands for this setting: endpoint: median tumor weight (est.), dose: 12.5 mg/kg/injection, schedule: Q07DX005 (ip), vehicle: Klucel (hydroxypropylcellulose) (HPC).
Where [2] appears, read: endpoint: median tumor weight (est.), dose: 25.0 mg/kg/injection, schedule: Q07DX005 (ip), vehicle: Klucel (hydroxypropylcellulose) (HPC).
[3] abbreviates: endpoint: median tumor weight (est.), dose: 50.0 mg/kg/injection, schedule: Q07DX005 (ip), vehicle: Klucel (hydroxypropylcellulose) (HPC).
The mark [4] stands for this setting: endpoint: median tumor weight (est.), dose: 12.5 mg/kg/injection, schedule: Q07DX005 (ip), vehicle: saline with Tween-80.
The mark [5] stands for this setting: endpoint: median tumor weight (est.), dose: 25.0 mg/kg/injection, schedule: Q07DX005 (ip), vehicle: saline with Tween-80.
The mark [6] stands for this setting: endpoint: median tumor weight (est.), dose: 50.0 mg/kg/injection, schedule: Q07DX005 (ip), vehicle: saline with Tween-80.
Setting [7] is: endpoint: median tumor weight (est.), dose: 100.0 mg/kg/injection, schedule: Q07DX005 (ip), vehicle: saline with Tween-80.
[8] abbreviates: endpoint: median tumor weight (est.), dose: 200.0 mg/kg/injection, schedule: Q07DX005 (ip), vehicle: saline with Tween-80.

Turning to `O=C(O)c1c2c(nc3ccccc13)Cc1ccccc1-2`, the T/C is 96 % of control under setting [1]; 6 % of control (endpoint: median tumor weight (est.), dose: 12.5 mg/kg/injection, schedule: Q07DX005 (ip), vehicle: water); 119 % of control under setting [2]; 89 % of control (endpoint: median tumor weight (est.), dose: 25.0 mg/kg/injection, schedule: Q07DX005 (ip), vehicle: water); 98 % of control under setting [3]; 59 % of control (endpoint: median tumor weight (est.), dose: 50.0 mg/kg/injection, schedule: Q07DX005 (ip), vehicle: water). Besides, the T/C was 97 % of control (endpoint: median tumor weight (est.), dose: 100.0 mg/kg/injection, schedule: Q07DX005 (ip), vehicle: Klucel (hydroxypropylcellulose) (HPC)); 87 % of control (endpoint: median tumor weight (est.), dose: 100.0 mg/kg/injection, schedule: Q07DX005 (ip), vehicle: water); 57 % of control (endpoint: median tumor weight (est.), dose: 200.0 mg/kg/injection, schedule: Q07DX005 (ip), vehicle: Klucel (hydroxypropylcellulose) (HPC)); 60 % of control (endpoint: median tumor weight (est.), dose: 200.0 mg/kg/injection, schedule: Q07DX005 (ip), vehicle: water).

Turning to `COC1C(O)C(C)OC(OC2C(Oc3cccc4c(O)c5c(=O)oc6ccc(C)c7c(=O)oc(c34)c5c67)OC(C)C(O)C2O)C1O` (stereo unspecified), the T/C by setting is: under setting [1], 73 % of control; under setting [2], 75 % of control; under setting [3], 50 % of control.

In the case of `CC1/C=C/C=C/CC/C=C/C=C/C=C/C=C/C(OC2OC(C)C(O)C(N)C2O)CC2OC(CC(O)C(O)CCC(O)CC(O)CC(O)CC(=O)OC(C)C(C)C1O)CC(O)C2C(=O)O` (stereo unspecified), the T/C is 124 % of control (endpoint: median tumor weight change, dose: 31.25 mg/kg/injection, schedule: Q01DX001 (ip), vehicle: saline with Tween-80) and 84 % of control (endpoint: median tumor weight change, dose: 62.5 mg/kg/injection, schedule: Q01DX001 (ip), vehicle: saline with Tween-80).

`CCCCC[C@H](O)/C=C/[C@@H]1[C@@H](C/C=C\CCCC(=O)O)[C@@H](O)C[C@H]1O`: the T/C is, setting by setting: (endpoint: mean tumor weight, dose: 160.0 mg/kg/injection, schedule: Q01DX001 (iv), vehicle: saline) 93 % of control; (endpoint: mean tumor weight, dose: 320.0 mg/kg/injection, schedule: Q01DX001 (iv), vehicle: saline) 58 % of control.

`CC1(C)CC1(Br)Br`: the T/C by setting is: under setting [4], 69 % of control; under setting [5], 90 % of control; under setting [6], 116 % of control; under setting [7], 59 % of control.

Take `O=C1c2cccc(NCCCNCCO)c2C(=O)c2cccc(NCCCNCCO)c21`: the T/C runs as follows: (endpoint: median tumor weight change, dose: 6.25 mg/kg/injection, schedule: Q01DX001 (ip), vehicle: acid diluted with saline) 36 % of control; (endpoint: median tumor weight change, dose: 12.5 mg/kg/injection, schedule: Q01DX001 (ip), vehicle: acid diluted with saline) 47 % of control; (endpoint: median tumor weight change, dose: 25.0 mg/kg/injection, schedule: Q01DX001 (ip), vehicle: acid diluted with saline) 29 % of control; (endpoint: median tumor weight change, dose: 50.0 mg/kg/injection, schedule: Q01DX001 (ip), vehicle: acid diluted with saline) 23 % of control; (endpoint: median tumor weight change, dose: 100.0 mg/kg/injection, schedule: Q01DX001 (ip), vehicle: acid diluted with saline) 54 % of control.

Regarding `Oc1cc2ccccc2c(-c2c(O)c(O)cc3ccccc23)c1O`, the T/C runs as follows: under setting [5], 67 % of control; under setting [7], 55 % of control; under setting [8], 109 % of control.

As for `ClC1=C(Cl)C(Cl)=C(Cl)C1=Cc1ccccc1`, the T/C is 100 % of control (endpoint: median tumor weight change, dose: 31.0 mg/kg/injection, schedule: Q01DX001 (ip), vehicle: saline with Tween-80); 63 % of control (endpoint: median tumor weight change, dose: 62.0 mg/kg/injection, schedule: Q01DX001 (ip), vehicle: saline with Tween-80); 33 % of control (endpoint: median tumor weight change, dose: 150.0 mg/kg/injection, schedule: Q01DX001 (ip), vehicle: saline with Tween-80); 73 % of control (endpoint: median tumor weight change, dose: 300.0 mg/kg/injection, schedule: Q01DX001 (ip), vehicle: saline with Tween-80).

For the molecule `OCCN1CCN(CC/C=C2/c3ccccc3Sc3ccc(C(F)(F)F)cc32)CC1`, the T/C reads like this: (endpoint: median tumor weight (est.), dose: 3.12 mg/kg/injection, schedule: Q07DX005 (ip), vehicle: saline) 70 % of control; (endpoint: median tumor weight (est.), dose: 6.25 mg/kg/injection, schedule: Q07DX005 (ip), vehicle: saline) 107 % of control; (endpoint: median tumor weight (est.), dose: 12.5 mg/kg/injection, schedule: Q07DX005 (ip), vehicle: saline) 120 % of control; (endpoint: median tumor weight (est.), dose: 25.0 mg/kg/injection, schedule: Q07DX005 (ip), vehicle: saline) 101 % of control; (endpoint: median tumor weight (est.), dose: 50.0 mg/kg/injection, schedule: Q07DX005 (ip), vehicle: saline) 81 % of control.

As to `O=c1nc(-c2ccco2)sc(=O)[nH]1`, the T/C reads like this: (endpoint: median tumor weight change, dose: 31.25 mg/kg/injection, schedule: Q01DX001 (ip), vehicle: Klucel (hydroxypropylcellulose) (HPC)) 123 % of control; (endpoint: median tumor weight change, dose: 62.5 mg/kg/injection, schedule: Q01DX001 (ip), vehicle: Klucel (hydroxypropylcellulose) (HPC)) 63 % of control; (endpoint: median tumor weight change, dose: 125.0 mg/kg/injection, schedule: Q01DX001 (ip), vehicle: Klucel (hydroxypropylcellulose) (HPC)) 120 % of control; (endpoint: median tumor weight change, dose: 250.0 mg/kg/injection, schedule: Q01DX001 (ip), vehicle: Klucel (hydroxypropylcellulose) (HPC)) 53 % of control.

On to `NCCCNCCSP(=O)(O)O`, for which the T/C by setting is: under setting [5], 39 % of control; under setting [6], 33 % of control; under setting [7], 50 % of control; under setting [8], 28 % of control; (endpoint: median tumor weight (est.), dose: 400.0 mg/kg/injection, schedule: Q07DX005 (ip), vehicle: saline with Tween-80) 42 % of control.

As for `O=C1C(NCC(O)CO)=C(N2CC2)C(=O)C(NCC(O)CO)=C1N1CC1` (stereo unspecified), the T/C (endpoint: median tumor weight change, dose: 4.0 mg/kg/injection, schedule: Q01DX001 (ip), vehicle: saline) was 123 % of control; the T/C (endpoint: median tumor weight change, dose: 4.0 mg/kg/injection, schedule: Q01DX001 (ip), vehicle: suspension in saline) was 55 % of control; the T/C (endpoint: median tumor weight change, dose: 8.0 mg/kg/injection, schedule: Q01DX001 (ip), vehicle: saline) was 19 % of control; the T/C (endpoint: median tumor weight change, dose: 8.0 mg/kg/injection, schedule: Q01DX001 (ip), vehicle: suspension in saline) is 35 % of control (2×) and 55 % of control; the T/C (endpoint: median tumor weight change, dose: 16.0 mg/kg/injection, schedule: Q01DX001 (ip), vehicle: saline) is 3 % of control.

On to `CC[C@@]1(O)C[C@H](OC2CC(N(C)C)C(OC3CC(O)C(O[C@@H]4O[C@@H](C)C(=O)C=C4N)C(C)O3)C(C)O2)c2c(cc3c(c2O)C(=O)c2c(O)ccc(O)c2C3=O)[C@H]1C(=O)OC` (stereo partly specified), for which the T/C is 180 % of control (endpoint: median tumor weight (est.), dose: 0.09 mg/kg/injection, schedule: Q07DX005 (ip), vehicle: suspension in saline); 168 % of control (endpoint: median tumor weight (est.), dose: 0.18 mg/kg/injection, schedule: Q07DX005 (ip), vehicle: suspension in saline); 240 % of control (endpoint: median tumor weight (est.), dose: 0.37 mg/kg/injection, schedule: Q07DX005 (ip), vehicle: suspension in saline); 37 % of control (endpoint: median tumor weight (est.), dose: 0.38 mg/kg/injection, schedule: Q07DX005 (ip), vehicle: suspension in saline); 50 % of control and 69 % of control (endpoint: median tumor weight (est.), dose: 3.0 mg/kg/injection, schedule: Q07DX005 (ip), vehicle: suspension in saline); 106 % of control (endpoint: median tumor weight (est.), dose: 1.0 micrograms/kg/injection, schedule: Q07DX005 (ip), vehicle: Klucel (hydroxypropylcellulose) (HPC)). Also, the T/C (endpoint: median tumor weight (est.), dose: 4.0 micrograms/kg/injection, schedule: Q07DX005 (ip), vehicle: Klucel (hydroxypropylcellulose) (HPC)) was 123 % of control.

On to `O=C1NC(c2ccccc2)N=C2Oc3ccccc3C=C12` (stereo unspecified), for which the T/C (endpoint: median tumor weight (est.), dose: 3.12 mg/kg/injection, schedule: Q07DX005 (ip), vehicle: saline with Tween-80) was 116 % of control; the T/C (endpoint: median tumor weight (est.), dose: 6.25 mg/kg/injection, schedule: Q07DX005 (ip), vehicle: saline with Tween-80) is 50 % of control; the T/C under setting [4] is 109 % of control; the T/C under setting [5] was 78 % of control and 101 % of control; the T/C under setting [6] is 95 % of control and 115 % of control; the T/C under setting [7] was 63 % of control and 85 % of control.

`NC(=O)c1[nH]nc(C2OC(CO)C(O)C2O)c1O` (stereo unspecified): the T/C is, setting by setting: (endpoint: median tumor weight (est.), dose: 0.31 mg/kg/injection, schedule: Q07DX005 (ip), vehicle: saline) 123 % of control; (endpoint: median tumor weight (est.), dose: 0.62 mg/kg/injection, schedule: Q07DX005 (ip), vehicle: saline) 85 % of control; (endpoint: median tumor weight (est.), dose: 1.25 mg/kg/injection, schedule: Q07DX005 (ip), vehicle: saline) 77 % of control; (endpoint: median tumor weight (est.), dose: 2.5 mg/kg/injection, schedule: Q07DX005 (ip), vehicle: saline) 28 % of control; (endpoint: median tumor weight (est.), dose: 5.0 mg/kg/injection, schedule: Q07DX005 (ip), vehicle: saline) 53 % of control; (endpoint: median tumor weight (est.), dose: 10.0 mg/kg/injection, schedule: Q07DX005 (ip), vehicle: saline) 29 % of control.
